System: Beagle dogs with asymptomatic/preclinical ACVIM stage B2 MMVD
Experiment: Exploratory laboratory study in dogs with asymptomatic/preclinical myxomatous mitral valve disease (MMVD)
Assay type: in vivo, dog
From the text: Echocardiographic findings in dogs with MMVD stage B2 include degenerative valvular changes, increased left atrial dimension (LA/AO-ratio≥1.6), and increased left ventricular end-diastolic dimensions normalized to body weight (LVIDDN≥1.7) (Keene et al., 2019). For evaluation of survival time a severity score (MINE score) based on the echocardiographic variables above, the cardiac contractility (fractional shortening, FS %), and transmitral peak E-wave velocity was initiated (Vezzosi T et al., J Vet Intern Med. 2021, 35(3):1238-1244). The MINE score is associate with the survival time and provides therefore prognostic information.
The objective of this study was to evaluate velagliflozin, a sodium-glucose co-transporter-2 inhibitor, as a treatment for dogs with asymptomatic/preclinical ACVIM stage B2 MMVD. Three Beagle dogs previously diagnosed with this condition by a veterinary cardiologist were included in the study.
Baseline assessments included body weight measurements, veterinary examinations, echocardiographs, urinalysis, blood collections for hematology, biochemistry, BHB, NT-proBNP, cTnI, and erythropoietin analysis as well as radiographs to assess heart size, pulmonary edema, and congestion. On study Day 0, once daily oral administration of velagliflozin (0.05 mg/kg bodyweight) was initiated. Veterinary examinations, urinalysis, and blood collections for analysis of the above-mentioned parameters were repeated on Days 32, 59, and 91. Echocardiographs were repeated on Days 23, 58, and 93. General health observations are conducted twice daily, and body weights measured approximately every 3 weeks.
Additionally, the “The Mitral Insufficiency Echocardiographic” score, a severity classification of myxomatous mitral valve disease (MMVD) in dogs (MINE score) was calculated (Vezzosi et al., 2021). This score as an easy-to-use echocardiographic classification of severity of MMVD based on routinely acquired echocardiographic variables. The hypothesis was that the MINE score is clinically effective since it is associated with median survival time of the animals (see tables 5 and 6 below).

[1] = Azul, Day 58, velagliflozin 0.05 mg/kg bodyweight oral once daily

## N#Cc1ccc([C@@H]2O[C@H](CO)[C@@H](O)[C@H](O)[C@H]2O)cc1Cc1ccc(C2CC2)cc1 [velagliflozin, Velagliflozin]
Azul, D93, moderate at baseline
  MINE severity classification: severe
[1]
  LVIDDN reduction from baseline: 3.56%
  decrease from baseline in LA/Ao ratio: 17.3%
Azul, Day 59, within the reference range
  NT-proBNP reduction from baseline: 76.3%
Azul, Day 91
  NT-proBNP reduction from baseline: 45.8%
Azul, Day 93, base line 7 (Moderate), increase due to increase in FS %, might be due to cystitis
  Total MINE score: 8 (Increase due to increase in FS %, also showed an
Azul, Day 93, just above baseline
  LVIDDN change versus baseline: +0.81%
Azul, Day 93, velagliflozin 0.05 mg/kg bodyweight oral once daily
  LA/Ao ratio below baseline: 1.08%
Azul, during treatment, recovered
  adverse event in one animal: developed a cystitis
Azul, summary
  LVIDDN (in words): no change
Azul, summary at D93
  LA/AO-ratio (in words): no change
Birdie and Shelby, summary, within day-to-day variability
  LVIDDN (in words): slight decrease (improvement)
Birdie, Day 93
  LVIDDN reduction from baseline: 5.25%
Birdie, Day 93, Mild at base line
  MINE severity classification: Mild (4-5)
Birdie, Day 93, base line 5 (Mild)
  Total MINE score: 5
Birdie, Day 93, velagliflozin 0.05 mg/kg bodyweight oral once daily
  reduction from baseline in LA/Ao ratio: 12.73%
Birdie, summary, beyond day-to-day variability
  left atrial size (in words): normalization of the left atrial size
Shelby, Day 91, still above the reference range
  NT-proBNP reduction from baseline: 45.6%
Shelby, Day 93
  LVIDDN reduction from baseline: 3.54%
Shelby, Day 93, Moderate at base line
  MINE severity classification: Moderate (6-7)
Shelby, Day 93, base line 7 (Moderate), decrease due to improvement in left ventricular diameter
  Total MINE score: 6
Shelby, summary, within day-to-day variability
  LA/AO-ratio (in words): slight increase (worsening)
Shelby, velagliflozin 0.05 mg/kg bodyweight oral once daily
  reduction in LA/Ao ratio from baseline: had not shown a reduction
All three dogs, D94
  survival at the time of the interim analysis: still alive
Any time in any animal
  blood glucose, renal function, or serum electrolytes: no changes
Attributed to oral administration of a liquid product
  observations following dosing: Lip smacking/licking, head shaking, grimacing, and salivating
Group housed dogs, relationship to test product unknown, one instance also at baseline
  most frequent abnormal observation following initiation of treatment: vomit found within the housing pen
Three Beagle dogs, velagliflozin 0.05 mg/kg bodyweight oral once daily
  changes in cTnI: do not appear to be showing a clinically significant trend
Three Beagle dogs, velagliflozin 0.05 mg/kg bodyweight oral once daily, Days 32, 59, 91
  hematology, biochemistry, or erythropoietin parameters: No clinically significant changes
Three dogs, pharmacodynamic effectiveness
  glucosuria: noted in all three dogs
Three dogs, until D94, velagliflozin 0.05 mg/kg bodyweight once daily only
  development of congestive heart failure (CHF): None of the study dogs developed congestive heart failure
Three dogs, until interim analysis at D94
  overall disease state: stable disease states with signs of improvement

Source: patent publication US20240398845A1, “USE OF SGLT-2 INHIBITORS FOR THE PREVENTION AND/OR TREATMENT OF CARDIAC DISEASES IN NON-HUMAN MAMMALS EXCLUDING FELINES, IN PARTICULAR CANINES” (BOEHRINGER INGELHEIM VETMEDICA GMBH, priority 2021, published 2024)
